Numbers after ± are expanded uncertainties.
Settings: Liquid, Vibrating tube method

CCC(C)O (stereo not drawn) [butan-2-ol]
Settings | mass density [kg/m3]
303.15 K, 20032 kPa | 813.3 ± 0.9
303.15 K, 21980 kPa | 814.6 ± 0.9
303.15 K, 25089 kPa | 816.7 ± 0.9
303.15 K, 27989 kPa | 818.6 ± 0.9
303.15 K, 30014 kPa | 819.9 ± 0.9
303.15 K, 32951 kPa | 821.7 ± 0.9
303.15 K, 33007 kPa | 821.7 ± 0.9
303.15 K, 33998 kPa | 822.3 ± 0.9
303.15 K, 38048 kPa | 824.8 ± 0.9
303.15 K, 40020 kPa | 826 ± 0.9
303.15 K, 42004 kPa | 827.1 ± 0.9
303.15 K, 44999 kPa | 828.9 ± 0.9
303.15 K, 45386 kPa | 829.1 ± 0.9
303.15 K, 48182 kPa | 830.7 ± 0.9
303.15 K, 50063 kPa | 831.8 ± 1
303.15 K, 51975 kPa | 832.8 ± 1
303.16 K, 469 kPa | 798.5 ± 0.8
303.16 K, 7034 kPa | 803.7 ± 0.8
303.16 K, 9943 kPa | 806 ± 0.9
303.16 K, 11919 kPa | 807.5 ± 0.9
303.16 K, 15070 kPa | 809.8 ± 0.9
303.16 K, 31992 kPa | 821.1 ± 0.9
303.16 K, 35073 kPa | 823 ± 0.9
303.16 K, 55053 kPa | 834.5 ± 1
303.16 K, 57971 kPa | 836.1 ± 1
303.16 K, 59945 kPa | 837.1 ± 1
303.16 K, 62023 kPa | 838.2 ± 1
303.16 K, 64910 kPa | 839.7 ± 1
303.16 K, 66100 kPa | 840.3 ± 1
308.15 K, 99 kPa | 793.9 ± 0.8
308.15 K, 284 kPa | 794.1 ± 0.8
308.15 K, 499 kPa | 794.3 ± 0.8
308.15 K, 1030 kPa | 794.8 ± 0.8
308.15 K, 2012 kPa | 795.6 ± 0.8
308.15 K, 3016 kPa | 796.4 ± 0.8
308.15 K, 10011 kPa | 802 ± 0.9
308.15 K, 17937 kPa | 808 ± 0.9
308.15 K, 31948 kPa | 817.5 ± 0.9
308.15 K, 32957 kPa | 818.2 ± 0.9
308.15 K, 33017 kPa | 818.2 ± 0.9
308.15 K, 34003 kPa | 818.8 ± 0.9
308.15 K, 38001 kPa | 821.3 ± 0.9
308.15 K, 45022 kPa | 825.5 ± 0.9
308.15 K, 50010 kPa | 828.4 ± 1
308.15 K, 52016 kPa | 829.5 ± 1
308.15 K, 54994 kPa | 831.2 ± 1
308.15 K, 58005 kPa | 832.8 ± 1
308.15 K, 60029 kPa | 833.9 ± 1
308.16 K, 919 kPa | 794.6 ± 0.8
308.16 K, 5009 kPa | 798.1 ± 0.8
308.16 K, 7020 kPa | 799.7 ± 0.8
308.16 K, 9036 kPa | 801.3 ± 0.8
308.16 K, 11963 kPa | 803.6 ± 0.9
308.16 K, 15014 kPa | 805.8 ± 0.9
308.16 K, 19942 kPa | 809.4 ± 0.9
308.16 K, 22125 kPa | 810.9 ± 0.9
308.16 K, 25007 kPa | 813 ± 0.9
308.16 K, 28001 kPa | 815 ± 0.9
308.16 K, 30046 kPa | 816.3 ± 0.9
308.16 K, 35061 kPa | 819.4 ± 0.9
308.16 K, 40051 kPa | 822.5 ± 0.9
308.16 K, 41974 kPa | 823.7 ± 0.9
308.16 K, 47997 kPa | 827.2 ± 0.9
308.16 K, 61986 kPa | 835 ± 1
308.16 K, 64977 kPa | 836.6 ± 1
308.16 K, 66129 kPa | 837.2 ± 1
313.15 K, 97 kPa | 789.4 ± 0.8
313.15 K, 331 kPa | 789.6 ± 0.8
313.15 K, 521 kPa | 789.8 ± 0.8
313.15 K, 925 kPa | 790.2 ± 0.8
313.15 K, 1936 kPa | 791 ± 0.8
313.15 K, 2964 kPa | 791.9 ± 0.8
313.15 K, 10109 kPa | 797.8 ± 0.9
313.15 K, 12051 kPa | 799.4 ± 0.9
313.15 K, 22039 kPa | 806.9 ± 0.9
313.15 K, 24988 kPa | 809 ± 0.9
313.15 K, 27962 kPa | 811 ± 0.9
313.15 K, 30012 kPa | 812.4 ± 0.9
313.15 K, 32043 kPa | 813.7 ± 0.9
313.15 K, 33039 kPa | 814.4 ± 0.9
313.15 K, 33084 kPa | 814.4 ± 0.9
313.15 K, 37907 kPa | 817.5 ± 0.9
313.15 K, 42039 kPa | 820 ± 0.9
313.15 K, 50005 kPa | 824.8 ± 1
313.15 K, 58031 kPa | 829.3 ± 1
313.16 K, 1053 kPa | 790.3 ± 0.8
313.16 K, 5002 kPa | 793.7 ± 0.8
313.16 K, 6986 kPa | 795.3 ± 0.8
313.16 K, 8976 kPa | 797 ± 0.8
313.16 K, 14996 kPa | 801.7 ± 0.9
313.16 K, 17980 kPa | 803.9 ± 0.9
313.16 K, 20012 kPa | 805.4 ± 0.9
313.16 K, 34096 kPa | 815 ± 0.9
313.16 K, 35045 kPa | 815.6 ± 0.9
313.16 K, 40135 kPa | 818.9 ± 0.9
313.16 K, 45006 kPa | 821.8 ± 0.9
313.16 K, 48081 kPa | 823.7 ± 1
313.16 K, 52025 kPa | 826 ± 1
313.16 K, 55030 kPa | 827.7 ± 1
313.16 K, 60001 kPa | 830.4 ± 1
313.16 K, 62068 kPa | 831.6 ± 1
313.16 K, 65053 kPa | 833.2 ± 1
313.16 K, 66058 kPa | 833.7 ± 1
318.15 K, 102 kPa | 784.8 ± 0.8
318.15 K, 288 kPa | 785 ± 0.8
318.15 K, 909 kPa | 785.5 ± 0.8
318.15 K, 9293 kPa | 792.8 ± 0.9
318.15 K, 12039 kPa | 795.1 ± 0.9
318.15 K, 14977 kPa | 797.4 ± 0.9
318.15 K, 17998 kPa | 799.8 ± 0.9
318.15 K, 20024 kPa | 801.3 ± 0.9
318.15 K, 24907 kPa | 804.9 ± 0.9
318.15 K, 27973 kPa | 807.1 ± 0.9
318.15 K, 30001 kPa | 808.5 ± 0.9
318.15 K, 32873 kPa | 810.4 ± 0.9
318.15 K, 33033 kPa | 810.4 ± 0.9
318.15 K, 45210 kPa | 818.3 ± 0.9
318.15 K, 48072 kPa | 820.1 ± 1
318.15 K, 49996 kPa | 821.2 ± 1
318.15 K, 57926 kPa | 825.8 ± 1
318.16 K, 476 kPa | 785.1 ± 0.8
318.16 K, 1004 kPa | 785.6 ± 0.8
318.16 K, 1987 kPa | 786.5 ± 0.8
318.16 K, 3033 kPa | 787.4 ± 0.8
318.16 K, 5011 kPa | 789.2 ± 0.8
318.16 K, 6978 kPa | 790.9 ± 0.8
318.16 K, 10006 kPa | 793.4 ± 0.9
318.16 K, 22040 kPa | 802.8 ± 0.9
318.16 K, 32063 kPa | 809.9 ± 0.9
318.16 K, 33988 kPa | 811.1 ± 0.9
318.16 K, 34997 kPa | 811.8 ± 0.9
318.16 K, 38029 kPa | 813.7 ± 0.9
318.16 K, 39963 kPa | 815 ± 0.9
318.16 K, 42133 kPa | 816.4 ± 0.9
318.16 K, 51984 kPa | 822.4 ± 1
318.16 K, 54987 kPa | 824.1 ± 1
318.16 K, 60004 kPa | 827 ± 1
318.16 K, 62005 kPa | 828.1 ± 1
318.16 K, 65012 kPa | 829.7 ± 1
318.16 K, 66081 kPa | 830.3 ± 1
323.15 K, 539 kPa | 780.5 ± 0.8
323.15 K, 1027 kPa | 781 ± 0.8
323.15 K, 5007 kPa | 784.7 ± 0.8
323.15 K, 7056 kPa | 786.5 ± 0.8
323.15 K, 9085 kPa | 788.3 ± 0.9
323.15 K, 10245 kPa | 789.3 ± 0.9
323.15 K, 12118 kPa | 790.8 ± 0.9
323.15 K, 15027 kPa | 793.2 ± 0.9
323.15 K, 18033 kPa | 795.6 ± 0.9
323.15 K, 20133 kPa | 797.2 ± 0.9
323.15 K, 25015 kPa | 800.9 ± 0.9
323.15 K, 28096 kPa | 803.1 ± 0.9
323.15 K, 33113 kPa | 806.7 ± 0.9
323.15 K, 37980 kPa | 809.9 ± 0.9
323.15 K, 40058 kPa | 811.2 ± 0.9
323.15 K, 42026 kPa | 812.5 ± 0.9
323.15 K, 50034 kPa | 817.5 ± 1
323.15 K, 52055 kPa | 818.7 ± 1
